Source: patent publication US20240034717A1, “NOVEL POTASSIUM CHANNEL INHIBITORS” (Saniona A/S, priority 2020, published 2024)
Where “and” joins values, the source holds several entries; their conditions need not be identical. Equal values may be shown once.

Legend:
[1] = physchem; settings: for solubility at 16 h: 25 °C, pH 7.4, aqueous buffer, kinetic from dmso stock
Protocol: 2.79 g of K2HPO4 and 0.54 g of KH2PO4 was dissolved in 390 mL of milliQ water. pH was adjusted to 7.4 using 1N HCl/1N NaOH and final volume was made up to 400 mL with milliQ water.
In case of compounds not soluble/less quantity submission, 40/20/10Mm stocks were prepared and used for experiment.
Assay Procedure: • 245 μL of 50 mM phosphate buffer then 5 μL each of test compound/standards (80 mM) in their respective positions was added to the 1.1 mL 96 well plate. • DMSO Controls was prepared by taking 245 μL of 100% DMSO then 5 μL each of test compound in their respective positions and added to the 1.1 mL 96 well plate • Plate was incubated with mixing at 1600 RPM for 16 hours at room temperature (˜23 MC). • After incubation, samples were filtered using Millipore plates. • Filtrates were analysed by HPLC-UV.
Solubility is calculated using the following formula: […]

[2] = molecular target: erythrocyte KCa3.1 channels (Homo sapiens (Human), UniProt O15554); assay: Erythrocyte KCa3.1 assay; format: cell-based; settings: human erythrocytes, A23187-activated KCa3.1; read-out: RBC K (in vitro) Human IC50 (μM) Potency category
Protocol: Human blood was drawn from healthy human volunteers in a standard heparinized blood sampling vial (Vacutainer, Li/heparin, ED Bioscience, Plymouth, UK). The erythrocytes were packed by centrifugation, and the plasma and buffy coat were removed by aspiration. Erythrocytes were washed three times in the experimental salt solution and then stored at 0° C. until use. Blood samples from NMRI mice or from Wistar rats were treated similarly. The methodological principle is outlined in Macey et al. (1978) and further described in Strøbaek et al. (2013). Activation of the erythrocyte KCa3.1 channels were obtained by addition of the Ca^2+ ionophore A23187, which causes synchronized hyperpolarization, which is reported as a CCCP-mediated shift in the unbuffered extracellular pH of the erythrocyte suspension. Standard procedure: 3 mL unbuffered experimental salt solution (in mM: 2 KCl, 154 NaCl, 0.05 CaCl2) was heated to 37° C. with stirring. Packed erythrocytes were added (50 μL, final cytocrit 1.5%), and the extracellular pH (pHo) followed with a glass/calomel (pHG200-8/REF200, Radiometer, Denmark) electrode pair. CCCP (3 μL, final concentration 20 μM) was added followed by varying concentrations of test compounds (DMSO concentration constant). After pH stabilization at ˜7.2, A23187 (3 μL, final concentration 0.33 μM) was added to initiate the experiment. After the peak hyperpolarization was attained, the intracellular pH (pHi constant during the experiment) was found by haemolysing the erythrocytes via addition of 100 μL of Triton-X100.
The erythrocyte membrane potential, Vm, was calculated according to: […]
and the fractional remaining Ca^2+-activated K^+-conductance at the concentration C of blocker, fGK(C), was calculated from
where the K^+ equilibrium potential EK=−107 mV, the Cl^− equilibrium potential ECl=−12 mV and the Vm(0) and Vm(C) are the peak hyperpolarizations in the control and in the presence of a concentration of C of blocker respectively.
IC50 values for compounds were calculated from a plot of fGK(C) versus C by a fit to the Hill equation, using a custom program written in the IGOR-Pro software (WaveMetrics, Lake Oswego, OR, USA). All IC50-values are reported in μM.

[3] = 50 mM potassium phosphate buffer pH 7.40, 16 hr at ~25° C., incubation concentration 1600 μM

SMILES	solubility at 16 h [1]	IC50 [2] [µM]	Measured Solubility in pH 7.4 phosphate buffer (mg/ml) [1, 3] [mg/ml]	Measured Solubility in pH 7.4 phosphate buffer (μM) [1, 3] [μM]	Measured Solubility in pH 7.4 phosphate buffer (μM) ([1]; 16 h, pH 7.4)
CN1CCC1CN(CC(C)(C)O)C1(c2ccc(F)c(C(F)(F)F)c2)CC1 (centres unmarked) [1-((1-(4-fluoro-3-(trifluoromethyl)phenyl)cyclopropyl)((1-methylazetidin-2-yl)methyl)amino)-2-methylpropan-2-ol]	597 µg/mL and 1600 µM	< 1	–	–	–
N[C@H]1CCC[C@@H]1NC1(c2ccc(F)c(C(F)(F)F)c2)CC1 [(1S,2S)-N1-(1-(4-fluoro-3-(trifluoromethyl)phenyl)cyclopropyl)-cyclopentane-1,2-diamine]	239 µg/mL and 700 µM	< 1	–	–	–
CS(=O)(=O)N(C[C@@H]1CCCN1)C1(c2ccc(F)c(C(F)(F)F)c2)CC1 [(S)-N-(1-(4-fluoro-3-(trifluoromethyl)phenyl)cyclopropyl)-N-(pyrrolidin-2-ylmethyl) methanesulfonamide]	–	< 1	0.3218	800	–
COC(=O)N1CC(N(C(=O)OC)C2(c3ccc(F)c(C(F)(F)F)c3)CC2)C1 [Methyl 3-((1-(4-fluoro-3-(trifluoromethyl)phenyl)cyclopropyl) (methoxycarbonyl)amino)azetidine-1-carboxylate]	27.9 µg/mL and 100 µM	< 0.3	–	–	–
COC(=O)N(CC(C)(C)NO)C1(c2ccc(F)c(C(F)(F)F)c2)CC1 [Methyl (1-(4-fluoro-3-(trifluoromethyl)phenyl)cyclopropyl)(2-(hydroxyamino)-2-methylpropyl)carbamate]	138 µg/mL and 400 µM	< 0.3	–	–	–
COC(=O)N(CC1CCN1C)C1(c2ccc(F)c(C(F)(F)F)c2)CC1 (centres unmarked) [Methyl (1-(4-fluoro-3-(trifluoromethyl)phenyl)cyclopropyl)((1-methylazetidin-2-yl)methyl)carbamate]	598 µg/mL and 1700 µM	< 0.3	–	–	–
COC(=O)N(CC(C)(C)NC(C)=O)C1(c2ccc(F)c(C(F)(F)F)c2)CC1 [Methyl (2-acetamido-2-methylpropyl)(1-(4-fluoro-3-(trifluoromethyl)phenyl)cyclopropyl)carbamate]	596 µg/mL and 1500 µM	< 1	–	–	–
COC(=O)N(CC(C)(C)N)C1(c2cc(Cl)cc(Cl)c2)CC1 [Methyl (2-amino-2-methylpropyl)(1-(3,5-dichlorophenyl)cyclopropyl)carbamate]	578 µg/mL and 1600 µM	< 0.3	–	–	–
COC(=O)N(CC(C)(C)N)C1(c2cccc(C(F)(F)F)c2)CC1 [Methyl (2-amino-2-methylpropyl)(1-(3-(trifluoromethyl)phenyl)cyclopropyl)carbamate]	526 µg/mL and 1400 µM	< 0.3	–	–	–
COC(=O)N(CC(C)(C)N)C1(c2cccc(Br)c2)CC1 [Methyl (2-amino-2-methylpropyl)(1-(3-bromophenyl)cyclopropyl)carbamate]	376 µg/mL and 800 µM	< 1	–	–	–
COC(=O)N(CC(C)(C)N)C1(c2cccc(Cl)c2)CC1 [Methyl (2-amino-2-methylpropyl)(1-(3-chlorophenyl)cyclopropyl)carbamate]	634 µg/mL and 1500 µM	< 1	–	–	–
COC(=O)N(CC(C)(C)N)C1(c2ccc(F)c(OC(F)(F)F)c2)CC1 [Methyl (2-amino-2-methylpropyl)(1-(4-fluoro-3-(trifluoromethoxy)phenyl)cyclopropyl)carbamate]	584 µg/mL and 1500 µM	< 0.3	–	–	–
COC(=O)N(CC(C)(C)N)C1(c2ccc(F)c(C(F)(F)F)c2)CC1 [Methyl (2-amino-2-methylpropyl)(1-(4-fluoro-3-(trifluoromethyl)phenyl)cyclopropyl)carbamate]	556 µg/mL and 1600 µM	< 0.3	–	–	–
COC(=O)N(CC(C)(C)N)C1(c2cc(C(F)(F)F)c(F)cn2)CC1 [Methyl (2-amino-2-methylpropyl)(1-(5-fluoro-4-(trifluoromethyl)pyridin-2-yl)cyclopropyl) carbamate]	–	< 1	0.5636	1500	–
COC(=O)N(CC1(N)CC1)C1(c2ccc(F)c(C(F)(F)F)c2)CC1 [Methyl ((1-aminocyclopropyl)methyl)(1-(4-fluoro-3-(trifluoromethyl)phenyl)cyclopropyl) carbamate]	–	< 0.3	0.5599	1600	–
COC(=O)N(C[C@H]1CCCN1)C1(c2ccc(F)c(OC(F)(F)F)c2)CC1 [Methyl (R)-(1-(4-fluoro-3-(trifluoromethoxy)phenyl)cyclopropyl)(pyrrolidin-2-ylmethyl)carbamate]	677 µg/mL and 1600 µM	< 1	–	–	–
O=C1CSc2ccccc2N1Cc1cccc(C(F)(F)F)c1 [NS6180, 4-[[3-(Trifluoromethyl)-phenyl]methyl]-2H-1,4-benzothiazin-3(4H)-one, reference compound]	2.8 µM and 0.9 µg/mL	–	–	–	2.8

Now from value to compound:

solubility at 16 h [1]	IC50 [2] [µM]	Measured Solubility in pH 7.4 phosphate buffer (mg/ml) [1, 3] [mg/ml]	Measured Solubility in pH 7.4 phosphate buffer (μM) [1, 3] [μM]	Measured Solubility in pH 7.4 phosphate buffer (μM) ([1]; 16 h, pH 7.4)	SMILES
755 µg/mL and 1600 µM	< 0.3	–	–	–	CC(C)(O)CN(CC1CCN1)C1(c2ccc(F)c(C(F)(F)F)c2)CC1 (centres unmarked) [1-((azetidin-2-ylmethyl)(1-(4-fluoro-3-(trifluoromethyl)phenyl)cyclopropyl)amino)-2-methyl propan-2-ol]
480 µg/mL and 1400 µM	< 0.3	–	–	–	N[C@H]1CCC[C@H]1NC1(c2ccc(F)c(C(F)(F)F)c2)CC1 [(1R,2S)-N1-(1-(4-fluoro-3-(trifluoromethyl)phenyl)cyclopropyl)-cyclopentane-1,2-diamine]
621 µg/mL and 1600 µM	< 0.3	–	–	–	CN1CCC[C@H]1CN(C1(c2ccc(F)c(C(F)(F)F)c2)CC1)S(C)(=O)=O [(S)-N-(1-(4-fluoro-3-(trifluoromethyl)phenyl)cyclopropyl)-N-((1-methylpyrrolidin-2-yl)methyl)methanesulfonamide]
601 µg/mL and 1600 µM	< 0.3	–	–	–	O=C(OC1CC1)N(C[C@@H]1CCCN1)C1(c2ccc(F)c(C(F)(F)F)c2)CC1 [Cyclopropyl (S)-(1-(4-fluoro-3-(trifluoromethyl)phenyl)cyclopropyl)(pyrrolidin-2-ylmethyl)carbamate]
607 µg/mL and 1500 µM	< 0.3	–	–	–	CCOC(=O)N(CC(C)(C)N)C1(c2ccc(F)c(C(F)(F)F)c2)CC1 [Ethyl (2-amino-2-methylpropyl)(1-(4-fluoro-3-(trifluoromethyl)phenyl)cyclopropyl)carbamate]
616 µg/mL and 1500 µM	< 0.3	–	–	–	CCOC(=O)N(C[C@H]1CCCN1)C1(c2ccc(F)c(C(F)(F)F)c2)CC1 [Ethyl (R)-(1-(4-fluoro-3-(trifluoromethyl)phenyl)cyclopropyl)(pyrrolidin-2-ylmethyl)carbamate]
–	< 0.3	0.5679	1500	–	CCOC(=O)N(C[C@@H]1CCCN1C)C1(c2ccc(F)c(C(F)(F)F)c2)CC1 [Ethyl (S)-(1-(4-fluoro-3-(trifluoromethyl)phenyl)cyclopropyl)((1-methylpyrrolidin-2-yl)methyl) carbamate]
594 µg/mL and 1400 µM	< 0.3	–	–	–	CCOC(=O)N(C[C@@H]1CCCN1)C1(c2ccc(F)c(C(F)(F)F)c2)CC1 [Ethyl (S)-(1-(4-fluoro-3-(trifluoromethyl)phenyl)cyclopropyl)(pyrrolidin-2-ylmethyl)carbamate]
615 µg/mL and 1600 µM	< 0.3	–	–	–	CC(C)OC(=O)N(C[C@@H]1CCCN1)C1(c2ccc(F)c(C(F)(F)F)c2)CC1 [Isopropyl (S)-(1-(4-fluoro-3-(trifluoromethyl)phenyl)cyclopropyl)(pyrrolidin-2-ylmethyl)carbamate]
